Data on 1 molecule can be found in patent publication US20260355180A1, “COMPOSITIONS AND METHODS FOR SPLICEOSOME-TARGETED THERAPIES” (Institute for Cancer Research d/b/a The Research Institute …, priority 2022, published 2026).

The subject of data set [1] is WT MEF cells. As to the kind of experiment: Survival of PlaB treated MEF WT. The format is cell-based, mouse. As to the method: (§1) FIG. 16: Analysis of the effect of spliceosome inhibition on necroptosis in WT MEF cells. EV refers to cells treated with an empty vector.
(§2) Since induction of Z-nAs can result in ZBP1-dependent necroptosis, we analyzed induction of necroptosis in necroptotic competent MEFs using spliceosome inhibition. […] We also determined that MEFs ΔZBP1, WT, and Flag-ZBP1 cells treated with PlaB began dying within 24hours after treatment. With MEF Flag-ZBP1 cells showing only 20% survival after 24 hours (FIG. 16).

Data set [2] relates to H446 cells. As to the kind of experiment: MAVS knock out rescue of PlaB-mediated cell death, H446. The format is cell-based, human. Conditions: MAVS KO H446; data not shown. From the text:
Currently, ZBP1 and ADAR1 are the only two known proteins harbor Zα and interact with Z-NAs^104-109.

Data set [3] deals with MEF Flag-ZBP1 cells. As to the kind of experiment: Survival of PlaB treated MEF Flag-ZBP1. The data set is classed as cell-based, mouse. As to the method: as §1, §2
For data set [4], the system named is SCLC cell lines. As to the kind of experiment: Western blot of cleaved-PARP, pH2AX, ZBP1 and RIPK1 (FIG. 4C). The data set is classed as cell-based. Conditions: 48 hours of PlaB. From the text: FIG. 4A-4C: SF3B1 perturbation increases dsRNA and Z-nucleic acid levels in treated cells. […] (FIG. 4B) Quantification of A-RNA and Z-Nucleic acids. (FIG. 4C) Western blot showing induction of cleaved-PARP, pH2AX, and ZBP1, and the reduction of RIPK1 protein levels. Plots of signal intensity are mean±SEM, two-tailed unpaired Student's t test **p<0.01, ****p<0.0001.
Background: A western blot detects proteins with antibodies after separation by electrophoresis.

The test system of data set [5] is H446 SCLC cells. The data set can be described thus: RIPK1 depletion rescue of PlaB cytotoxicity, H446. The data set is classed as cell-based, human. As to conditions: 18 hours of PlaB, RIPK1 depleted H446. As to the method:
FIG. 2A) SCLC cell lines (H446 and H82) and immortalized fibroblasts (FC1010 and HS68) cell survival curves after 72 hours of PlaB treatment. FIG. 2B) RIPK1 depletion rescues H82 and H446 cell survival after 18 hours of PlaB treatment. FIG. 2C) Western blot showing RIPK1 protein depletion. Mean±SEM, Welch's t test *p<0.05, **p<0.01.
Cancer deregulates splicing^31,32, and we hypothesized that hyper-proliferative SCLCs are dependent on splicing machineries for increased tumorigenicity^90.

For data set [6], the system named is MEF ΔZα cells. As to the kind of experiment: A-RNA and Z-NA accumulation in MEF ΔZα. As to conditions: SF3B1 inhibition. The format is cell-based, mouse.
Data set [7] has as its system pTBK1 protein. As to the kind of experiment: Western blot of pTBK1. The format is cell-based. From the text:
FIG. 7: Western Blot analysis showing pTBK1 protein depletion.
Based on the publications and our findings, TNF sensing can at least partially rescue spliceosome perturbation mediated cell death.

For data set [8], the system named is MEF ΔZBP1 cells. The data set can be described thus: pMLKL western blot / necroptosis, MEF ΔZBP1. The format is cell-based, mouse. Conditions: 2.5 nM PlaB, 18 hours. As to the method: (§3) FIG. 5A-5E: SF3B1 perturbation upregulates A-RNA and Z-nucleic acids in MEFs. (FIG. 5A) 5 nM of PlaB induces A-RNA and Z-Nucleic acids in ΔZBP1 MEF cells. (FIG. 5B) Quantification of A-RNA and Z-Nucleic acids. […] Plots of signal intensity are mean±SEM, two-tailed unpaired Student's t test *p<0.05, ***p<0.001, ****p<0.0001. 18 hours of PlaB treatment for IF, WB and rescue experiments. IF: 5 nM PlaB, WB and rescue experiments: 2.5 nM PlaB.
as §2

The test system of data set [9] is H82 SCLC cells. As to the kind of experiment: IFN response by rRT-qPCR, H82. The data set is classed as cell-based. Conditions: dose-dependent. The source says: FIG. 3A-3D: SF3B1 inhibition induces a potent IFN response and increases expression of IFN-regulated proteins. […] Mean±SEM, two-tailed unpaired Student's t test *p<0.05, **p<0.01, ***p<0.001, ****p<0.0001.
We also observed that SF3B1 inhibition triggers robust anti-tumor response and upregulates IFN-β, IFN-γ, and IFN-responsive genes by real-time reverse-transcription quantitative polymerase chain reaction (rRT-qPCR) in H446 and H82 cells (FIGS. 3A and 3B). […] These observations indicate that spliceosome inhibition is useful as a targeted therapy for SCLCs.
In general terms: In qPCR the cycle at which signal appears reflects the starting amount.

The test system of data set [10] is MEF Flag-ZBP1 cells. As to the kind of experiment: A-RNA and Z-NA accumulation in MEF Flag-ZBP1. The format is cell-based, mouse. Conditions: SF3B1 inhibition.
Data set [11] concerns MEF ΔZBP1 cells. As to the kind of experiment: A-RNA and Z-NA accumulation in MEF ΔZBP1. The format is cell-based, mouse. How it is done: as §3, §2

Entries after “also recorded” stand apart in the source; their conditions may differ. Bounds are passed on as bounds.

With `CCC(O)C(C)C1OC1CC(C)C=CC=C(C)C1OC(=O)CC(O)CCC(C)(O)C(OC(C)=O)C=CC1C` (centres unmarked) [PlaB, Pladienolide B], in data set [1], the “time after treatment at which cells began dying” value is no more than 24 h. In data set [2], the “rescue of PlaB-mediated cell death by MAVS knock out” value is “only minimally rescue”. The “time after treatment at which cells began dying” value in data set [3] (MEF Flag-ZBP1) is no more than 24 h. In data set [3] (MEF Flag-ZBP1, after 24 hours), this molecule showed a survival of 20%. In addition, in [4], the RIPK1 protein level entry is listed as “dropped considerably”, the ZBP1 protein entry is “increased; also recorded: slight increase”, the cleaved-PARP protein entry is “increased” and the pH2AX protein result is “increased”. Further, the “cell survival upon RIPK1 depletion” value in data set [5] is given as “rescues”. The “A-RNA and Z-NA accumulation” value in [6] was “accumulation”. Further, the pTBK1 protein result in data set [7] is reported as “dramatic reduction”. The “pMLKL (necroptosis)” value in [8] was “not triggered”. Also, in [9], the IFN response entry is given as “induces potent IFN response”. Further, the “A-RNA and Z-NA accumulation” value in data set [10] is given as “accumulation”. Further, in data set [11] (5 nM PlaB, 18 hours), the A-RNA induction result is “induces” and the Z-Nucleic acids induction entry is recorded as “induces”. In addition, the “A-RNA and Z-NA accumulation” value in data set [11] (SF3B1 inhibition) is reported as “accumulation”.
